In patent publication US5962314A, “Calcium receptor-active molecules” (priority 1997, dated 1999):
“Also recorded” adds a separate entry of the source. Like-named read-outs stand apart in the source and are kept apart here.

Assays:
[1] = biological target: T1, parathyroid cell calcium receptor (Homo sapiens, UniProt P41180); assay: mobilization of intracellular Ca2+ in human parathyroid cells; type: cell-based; conditions: neomycin B 10 or 20 μM, spermine 300 μM, Mg2+ 10 mM
T1 construct: Dissociated parathyroid cells were prepared from a parathyroid adenoma obtained by surgery from a patient with primary hyperparathyroidism; endogenous in cells; host or cells: human parathyroid cells (adenoma or hyperplastic glands from patients)
T1 sequence (P41180 20-1078): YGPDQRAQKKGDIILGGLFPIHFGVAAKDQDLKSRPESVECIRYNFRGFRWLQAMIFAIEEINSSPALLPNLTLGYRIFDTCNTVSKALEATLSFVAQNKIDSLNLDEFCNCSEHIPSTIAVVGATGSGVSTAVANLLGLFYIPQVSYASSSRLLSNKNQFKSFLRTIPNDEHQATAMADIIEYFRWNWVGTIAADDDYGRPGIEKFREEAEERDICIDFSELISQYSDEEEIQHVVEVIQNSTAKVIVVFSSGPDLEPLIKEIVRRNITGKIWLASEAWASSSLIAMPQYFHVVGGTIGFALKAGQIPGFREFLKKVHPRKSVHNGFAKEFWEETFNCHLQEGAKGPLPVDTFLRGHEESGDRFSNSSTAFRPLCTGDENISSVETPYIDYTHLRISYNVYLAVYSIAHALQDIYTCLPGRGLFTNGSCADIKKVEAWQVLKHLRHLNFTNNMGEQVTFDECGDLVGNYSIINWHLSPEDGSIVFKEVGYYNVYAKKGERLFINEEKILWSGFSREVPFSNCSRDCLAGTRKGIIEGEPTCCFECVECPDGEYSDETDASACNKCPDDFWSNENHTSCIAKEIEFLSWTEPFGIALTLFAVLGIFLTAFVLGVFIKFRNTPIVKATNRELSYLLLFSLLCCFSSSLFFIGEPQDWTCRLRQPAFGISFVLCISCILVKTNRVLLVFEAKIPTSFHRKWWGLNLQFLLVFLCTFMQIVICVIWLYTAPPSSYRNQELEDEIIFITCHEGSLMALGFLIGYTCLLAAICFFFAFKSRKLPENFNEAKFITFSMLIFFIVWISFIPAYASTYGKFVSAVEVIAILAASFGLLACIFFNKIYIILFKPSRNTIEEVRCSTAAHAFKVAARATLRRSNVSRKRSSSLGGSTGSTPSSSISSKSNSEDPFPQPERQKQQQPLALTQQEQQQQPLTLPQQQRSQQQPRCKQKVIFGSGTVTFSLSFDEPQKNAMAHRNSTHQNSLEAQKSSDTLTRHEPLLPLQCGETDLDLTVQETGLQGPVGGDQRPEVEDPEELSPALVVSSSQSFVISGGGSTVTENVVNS
Procedure: Human parathyroid glands, were obtained from patients undergoing surgical removal of parathyroid tissue for primary or uremic hyperparathyroidism (uremic HPT), and were treated similarly to bovine tissue.
The cells were then pelleted, resuspended in the same buffer, but lacking the ester, and incubated a further 15 minutes at 37° C. The cells were subsequently washed twice with PCB containing 0.5 mM CaCl2 and 0.5% BSA and maintained at room temperature (about 20° C.). Immediately before use, the cells were diluted five-fold with prewarmed 0.5 mM CaCl2 -PCB to obtain a final BSA concentration of 0.1%. The concentration of cells in the cuvette used for fluorescence recording was 1-2×10^6 /ml.

[2] = test system: osteoclast calcium receptor; assay: [Ca2+]i in indo-1-loaded rat osteoclasts; type: cell-based
[3] = test system: bovine parathyroid cells; assay: PTH secretion from bovine parathyroid cells; type: cell-based; conditions: bovine parathyroid cells
[4] = test system: human parathyroid cells; assay: PTH secretion from human parathyroid cells; type: cell-based; conditions: human (adenoma) parathyroid cells
Procedure: PTH secretion was measured by first suspending cells in PCB containing 0.5 mM CaCl2 and 0.1% BSA.
For human cells, a commercially available radioimmunoassay kit (INS-PTH; Nichols Institute, Los Angeles, Calif.) which recognizes intact and N-terminal human PTH was used because GW-1 antibody recognizes human PTH poorly.

[5] = test system: serum parathyroid hormone; assay: serum PTH in a human; type: in vivo; conditions: single oral doses
Source text: (§1) A range of single oral doses was used to assess safety, tolerance, and changes in primary hyperparathyroidism markers (e.g., plasma concentrations of parathyroid hormone and ionized serum calcium) and of serum calcitonin.

[6] = test system: serum ionized calcium; assay: serum ionized calcium in a human; type: in vivo; conditions: higher single oral doses
Source text: as §1

[7] = test system: serum calcitonin; assay: serum calcitonin in a human; type: in vivo; conditions: single oral doses studied
Source text: as §1

Compound	effect on [Ca2+]i in human parathyroid cells [1]	effect on [Ca2+]i in human parathyroid cells ([1]; listed as Neomycin B)	effect on [Ca2+]i in human parathyroid cells ([1]; listed as neomycin B)	effect on [Ca2+]i in osteoclasts [2]	effect on response to extracellular Ca2+ in osteoclasts [2]	effect on [Ca2+]i in osteoclasts ([2]; listed as neomycin)	effect on [Ca2+]i in osteoclasts ([2]; listed as neomycin B)	effect on PTH secretion [3]	effect on PTH secretion ([4]; listed as Neomycin B)	effect on PTH secretion ([4]; listed as neomycin B)	effect on plasma PTH in human [5]	effect on serum ionized calcium in human [6]	effect on serum calcitonin in human [7]
NC[C@@H]1O[C@H](O[C@H]2[C@@H](O)[C@H](O[C@@H]3[C@@H](O)[C@H](N)C[C@H](N)[C@H]3O[C@H]3O[C@H](CN)[C@@H](O)[C@H](O)[C@H]3N)O[C@@H]2CO)[C@H](N)[C@@H](O)[C@@H]1O [Neomycin]	large increase in [Ca^2+ ]i	not only a transient, but additionally a steady-state increase in [Ca^2+ ]i	transient and sustained increases in [Ca^2+ ]i	failed to evoke any increase in [Ca^2+ ]i; also recorded: Neither neomycin (10 mM) nor spermine (10 or 20 mM) caused increases in [Ca^2+ ]i; also recorded: fail to affect the calcium receptors on C-cells or osteoclasts	did not block the increase in [Ca^2+ ]i	none of these caused any large increase in [Ca^2+ ]i	fail to evoke increases in [Ca^2+ ]i	inhibited PTH secretion to the same extent as extracellular Ca^2+	inhibited PTH secretion from human parathyroid cells	inhibit PTH secretion			
COc1cccc([C@@H](C)NCCCc2ccccc2Cl)c1 [NPS R-568, (R)-(+)-N-[3-(2-chlorophenyl)propyl]-α-methyl-3-methoxybenzylamine]											transient dose-dependent decrease in plasma PTH concentration	decrease in serum ionized calcium concentration	no apparent change in serum calcitonin
